According to patent US7776899B2, “Methods for treatment of erectile dysfunction” (Repros Therapeutics Inc., priority 1998, dated 2010):
Structures can show the parent of a compound that is named as a salt.

Columns and labels:
[1] = pH 7.48
Experimental: (§1) A 0.1 N solution of NaOH was used to adjust the pH to the indicated values. These solutions were shaken for about 10 minutes then held at room temperature overnight in order to allow maximum dissolution of drugs in the buffer. […] HPLC was performed using a C18 column having a mobile phase of buffer (5 mM NaH2PO4 and 5 mM octane sulfonic acid, pH 3) in 30% acetonitrile with a flow rate of 1.5 ml/minute. The detection wavelength was 210 nm.

physchem = settings: thermodynamic from solid
Experimental: as §1

In Solution (solubility in mixture) [1]: 170 µg/mL
solubility (physchem; pH 3.91, aqueous buffer, In Solution (solubility in mixture)): 36800 µg/mL
solubility (physchem; pH 3.91, aqueous buffer, solubility): ~36800 µg/mL
solubility (physchem; pH 4.35, aqueous buffer, In Solution (solubility in mixture)): 7750 µg/mL
solubility (physchem; pH 5.04, aqueous buffer, In Solution (solubility in mixture)): 700 µg/mL
solubility (physchem; pH 7.48, aqueous buffer, In Solution (solubility in mixture)): ~200 µg/mL
solubility (physchem; pH 7.65, aqueous buffer, In Solution (solubility in mixture)): 200 µg/mL
Structure (SMILES): COc1ccc(Cc2nccc3cc(OC)c(OC)cc23)cc1OC [Papaverine, papaverine hydrochloride]
